Results: BigSolDB 2.1

O=C(O)c1ccc[nH]c1=O
solubility (mole fraction)
Settings | in acetone | in acetonitrile | in ethanol | in ethyl acetate | in isopropanol | in methanol | in n-butanol | in n-butyl acetate | in sec-butanol | in water
293.15 K | 0.00135 | 0.000837 | 0.000992 | 0.000248 | 0.000278 | 0.00097 | 0.000215 | 5.2e-05 | 0.000138 | 0.000796
303.15 K | 0.00199 | 0.00116 | 0.00134 | 0.000365 | 0.000401 | 0.00146 | 0.00031 | 7.5e-05 | 0.000199 | 0.00111
308.15 K | 0.00233 | – | – | – | – | – | – | – | – | –
313.15 K | 0.00277 | 0.00169 | 0.00177 | 0.000559 | 0.000565 | 0.0021 | 0.000437 | 0.000105 | 0.000283 | 0.00159
318.15 K | 0.0033 | 0.0019 | 0.00218 | 0.000661 | 0.000595 | 0.00253 | 0.000515 | 0.000124 | 0.000331 | 0.00195
323.15 K | 0.00374 | 0.00218 | 0.0025 | 0.000795 | 0.000772 | 0.00297 | 0.000603 | 0.000146 | 0.000384 | 0.00237
333.15 K | – | 0.00282 | 0.00351 | 0.00124 | 0.00106 | 0.00378 | 0.000817 | 0.000197 | 0.000525 | 0.00326
